Values of other authors, collected in US10842782B2, “Storage stable composition comprising rifaximin alpha” (Sandoz AG, priority 2016, dated 2020).

Settings: single 400 mg dose

Compound: CO[C@H]1/C=C/O[C@@]2(C)Oc3c(C)c(O)c4c(O)c(c5c(nc6cc(C)ccn65)c4c3C2=O)NC(=O)/C(C)=C\C=C\[C@H](C)[C@H](O)[C@@H](C)[C@@H](O)[C@@H](C)[C@H](OC(C)=O)[C@@H]1C [Alpha, (2S,16Z,18E,20S,21S,22R,23R,24R,25S,26S,27S,28E)-5,6,21,23,25-pentahydroxy-27-methoxy-2,4,11,16,20,22,24,26-octamethyl-2,7-(epoxypentadeca[1,11,13]trienimino) benzofuro[4,5-e]pyrido[1,2-a]-benzimidazole-1,15(2H)-dione,25-acetate]
- AUC: 17 ng·h/mL
- Cmax: 2.6 ng/mL

Compound: CO[C@H]1/C=C/O[C@@]2(C)Oc3c(C)c(O)c4c(O)c(c5c(nc6cc(C)ccn65)c4c3C2=O)NC(=O)/C(C)=C\C=C\[C@H](C)[C@H](O)[C@@H](C)[C@@H](O)[C@@H](C)[C@H](OC(C)=O)[C@@H]1C [Delta, (2S,16Z,18E,20S,21S,22R,23R,24R,25S,26S,27S,28E)-5,6,21,23,25-pentahydroxy-27-methoxy-2,4,11,16,20,22,24,26-octamethyl-2,7-(epoxypentadeca[1,11,13]trienimino) benzofuro[4,5-e]pyrido[1,2-a]-benzimidazole-1,15(2H)-dione,25-acetate]
- AUC: 830 ng·h/mL
- Cmax: 308.3 ng/mL
